Test results: PMC7316778 (Nature Communications, 2020)
Several values for one entry are separate records, joined by “and”; a condition that tells them apart may be missing. Equal values may be shown once. Read-outs that look alike come from different tables or passages of the source.

Experiments:
[1] = biological target: PRKCE (PKC epsilon) (Homo sapiens, UniProt Q02156); assay: SelectScreen kinase assay
Protocol: (§1) Selectivity profiling assays were performed by the Invitrogen SelectScreen™ Services. […] The concentration of ATP was selected to be equal to the KM, unless indicated otherwise.

[2] = biological target: T1, TAOK3 (JIK) (Homo sapiens, UniProt Q9H2K8); assay: SelectScreen kinase assay; settings: for Inhibition at 1 µM (%): LanthaScreen Binding
T1 sequence (Q9H2K8 1-898): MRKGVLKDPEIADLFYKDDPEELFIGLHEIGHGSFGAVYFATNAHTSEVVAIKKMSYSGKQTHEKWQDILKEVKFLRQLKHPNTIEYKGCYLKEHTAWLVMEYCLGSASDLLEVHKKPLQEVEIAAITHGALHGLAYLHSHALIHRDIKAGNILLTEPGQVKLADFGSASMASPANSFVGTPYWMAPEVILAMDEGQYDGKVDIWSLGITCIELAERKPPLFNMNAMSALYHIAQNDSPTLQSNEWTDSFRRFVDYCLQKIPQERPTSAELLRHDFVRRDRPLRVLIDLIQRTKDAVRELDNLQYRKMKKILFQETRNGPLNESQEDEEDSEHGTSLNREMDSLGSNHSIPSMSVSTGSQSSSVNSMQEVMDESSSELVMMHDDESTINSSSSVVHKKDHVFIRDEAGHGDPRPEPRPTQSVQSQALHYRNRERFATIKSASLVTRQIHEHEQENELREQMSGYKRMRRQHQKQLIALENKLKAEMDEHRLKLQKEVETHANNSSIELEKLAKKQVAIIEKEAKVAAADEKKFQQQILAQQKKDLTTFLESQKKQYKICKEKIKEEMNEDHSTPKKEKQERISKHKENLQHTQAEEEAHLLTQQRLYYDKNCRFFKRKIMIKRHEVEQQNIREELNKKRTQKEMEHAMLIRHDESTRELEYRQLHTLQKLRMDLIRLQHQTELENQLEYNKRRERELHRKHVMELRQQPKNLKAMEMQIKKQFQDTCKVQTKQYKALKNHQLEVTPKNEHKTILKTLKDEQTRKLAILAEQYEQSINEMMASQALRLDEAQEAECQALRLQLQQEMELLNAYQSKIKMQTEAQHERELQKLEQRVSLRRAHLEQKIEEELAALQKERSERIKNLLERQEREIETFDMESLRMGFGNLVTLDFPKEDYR
Protocol: as §1

[3] = biological target: PKN2 (PRK2) (Homo sapiens, UniProt Q16513); assay: SelectScreen kinase assay
Protocol: as §1

[4] = biological target: MAP3K2 (MEKK2) (Homo sapiens, UniProt Q9Y2U5); assay: SelectScreen kinase assay
Protocol: as §1

[5] = biological target: FYN A (Homo sapiens, UniProt P06241); assay: SelectScreen kinase assay
Protocol: as §1

[6] = biological target: MAPK8 (JNK1) (Homo sapiens, UniProt P45983); assay: SelectScreen kinase assay
Protocol: as §1

[7] = biological target: MST1R (RON) (Homo sapiens, UniProt Q04912); assay: SelectScreen kinase assay
Protocol: as §1

[8] = biological target: AMPK A2/B1/G1 (Homo sapiens, UniProt P54646); assay: SelectScreen kinase assay
Protocol: as §1

[9] = biological target: BMPR1A (ALK3) (Homo sapiens, UniProt P36894); assay: SelectScreen kinase assay; settings: for Inhibition at 1 µM (%): BMPR1A (ALK3), LanthaScreen Binding
Protocol: as §1

[10] = tested on: FES^S700C HL-60 cells; assay: Morphological inspection after PMA-induced differentiation; type: cell-based, human
Protocol: One day prior to induction of differentiation, cells were diluted to 0.4 × 10^6 cells/mL. […] Neutrophil differentiation was induced by addition of all-trans-retinoic acid (1 µM) and dimethylsulfoxide (1.25%) for 72–96 h. For morphological inspection, images were taken on an EVOS FL Auto 2 Imaging System (Thermo Fisher) at ×20 magnification.
Supplementary Figure 10. Analysis of putative sgRNA off-target site. Analysis of the only predicted coding off-target of the sgRNA target sequence employed for FESS700C mutagenesis, located in the TTC16 gene. Genomic region surrounding putative off-target site was amplified by PCR, followed by Sanger sequencing analysis. No off-target gene editing events were observed.
Supplementary Figure 11. Morphological inspection of WT and FESS700C HL-60 cells after PMA-induced differentiation towards macrophages. Cells were treated with vehicle or indicated concentrations of WEL028 during PMA-induced differentiation toward macrophages. Wild-type and […]
are representative for multiple acquired images at 20x magnification from replicates (n = 3).
(also on this page, place not known: off -target off -target FES S700C PMA -induced W ild-type PAM Predicted TTC16 (NM_144965) HL-60 WT HL-60 125 μm Non-differentiated PMA (16 nM, 48 h) HL-60 WTHL-60 FESS700C Vehicle Vehicle WEL028 (100 nM) WEL028 (1 µM))

[11] = biological target: EPHA1 (Homo sapiens, UniProt P21709); assay: SelectScreen kinase assay
Protocol: as §1

[12] = biological target: ROCK2 (Homo sapiens, UniProt O75116); assay: SelectScreen kinase assay; settings: 1 h, 1 μM WEL028, 1 h preincubation
Protocol: as §1

[13] = biological target: MYLK (MLCK) (Homo sapiens, UniProt Q15746); assay: SelectScreen kinase assay
Protocol: as §1

[14] = biological target: IGF1R (Homo sapiens, UniProt P08069); assay: SelectScreen kinase assay
Protocol: as §1

[15] = biological target: MAP3K11 (MLK3) (Homo sapiens, UniProt Q16584); assay: SelectScreen kinase assay
Protocol: as §1

[16] = 1 h, 1 μM WEL028, 1 h preincubation
[17] = read-out: Inhibition at 1 µM (%)

Sequence of MST1R (RON) (Q04912 25-1400): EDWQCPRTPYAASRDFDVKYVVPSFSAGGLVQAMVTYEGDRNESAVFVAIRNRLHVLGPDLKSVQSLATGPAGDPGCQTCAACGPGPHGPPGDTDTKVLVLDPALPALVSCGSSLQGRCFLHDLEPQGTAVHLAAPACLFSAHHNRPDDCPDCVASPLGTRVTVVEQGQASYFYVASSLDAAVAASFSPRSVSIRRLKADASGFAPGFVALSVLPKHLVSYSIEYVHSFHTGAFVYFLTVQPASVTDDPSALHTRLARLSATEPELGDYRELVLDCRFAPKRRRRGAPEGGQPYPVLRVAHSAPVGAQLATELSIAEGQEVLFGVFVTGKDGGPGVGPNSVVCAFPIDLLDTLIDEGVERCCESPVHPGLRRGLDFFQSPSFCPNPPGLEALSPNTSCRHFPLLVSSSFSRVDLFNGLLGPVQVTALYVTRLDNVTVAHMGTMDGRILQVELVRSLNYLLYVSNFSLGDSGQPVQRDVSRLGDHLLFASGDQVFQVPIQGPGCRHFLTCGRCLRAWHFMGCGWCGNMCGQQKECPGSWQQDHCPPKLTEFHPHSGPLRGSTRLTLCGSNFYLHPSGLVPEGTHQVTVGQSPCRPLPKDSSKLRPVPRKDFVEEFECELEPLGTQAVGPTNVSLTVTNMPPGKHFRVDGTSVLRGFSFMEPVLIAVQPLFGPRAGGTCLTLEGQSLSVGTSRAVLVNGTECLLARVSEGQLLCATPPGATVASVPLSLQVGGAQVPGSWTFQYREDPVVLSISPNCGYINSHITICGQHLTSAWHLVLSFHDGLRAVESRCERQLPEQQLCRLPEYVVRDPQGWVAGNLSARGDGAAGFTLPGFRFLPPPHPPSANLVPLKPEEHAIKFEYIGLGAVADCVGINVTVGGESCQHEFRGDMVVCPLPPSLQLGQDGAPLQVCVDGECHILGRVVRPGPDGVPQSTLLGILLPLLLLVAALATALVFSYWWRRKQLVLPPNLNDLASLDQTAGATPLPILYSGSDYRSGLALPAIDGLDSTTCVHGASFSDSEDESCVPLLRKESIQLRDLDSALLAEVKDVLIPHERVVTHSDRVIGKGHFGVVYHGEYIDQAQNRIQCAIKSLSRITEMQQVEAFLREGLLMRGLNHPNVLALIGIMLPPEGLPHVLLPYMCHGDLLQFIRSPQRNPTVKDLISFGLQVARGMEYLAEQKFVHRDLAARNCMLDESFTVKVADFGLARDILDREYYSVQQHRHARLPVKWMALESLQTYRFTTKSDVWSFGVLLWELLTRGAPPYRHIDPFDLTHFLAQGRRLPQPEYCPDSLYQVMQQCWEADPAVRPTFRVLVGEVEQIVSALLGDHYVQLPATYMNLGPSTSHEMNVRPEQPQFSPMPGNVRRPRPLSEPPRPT
Sequence of MAPK8 (JNK1) (P45983 whole entry): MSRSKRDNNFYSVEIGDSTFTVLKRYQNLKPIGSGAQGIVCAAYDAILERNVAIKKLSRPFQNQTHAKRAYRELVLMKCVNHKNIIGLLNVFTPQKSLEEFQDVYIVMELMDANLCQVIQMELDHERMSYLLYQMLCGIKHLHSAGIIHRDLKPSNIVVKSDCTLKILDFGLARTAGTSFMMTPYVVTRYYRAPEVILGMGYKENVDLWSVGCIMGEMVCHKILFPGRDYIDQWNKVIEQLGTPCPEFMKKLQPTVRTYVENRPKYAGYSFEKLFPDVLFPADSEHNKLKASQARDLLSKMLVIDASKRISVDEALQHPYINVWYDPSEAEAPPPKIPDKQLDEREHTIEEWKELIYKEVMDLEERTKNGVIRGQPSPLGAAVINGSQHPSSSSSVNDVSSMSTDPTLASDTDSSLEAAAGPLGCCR
Sequence of PKN2 (PRK2) (Q16513 whole entry): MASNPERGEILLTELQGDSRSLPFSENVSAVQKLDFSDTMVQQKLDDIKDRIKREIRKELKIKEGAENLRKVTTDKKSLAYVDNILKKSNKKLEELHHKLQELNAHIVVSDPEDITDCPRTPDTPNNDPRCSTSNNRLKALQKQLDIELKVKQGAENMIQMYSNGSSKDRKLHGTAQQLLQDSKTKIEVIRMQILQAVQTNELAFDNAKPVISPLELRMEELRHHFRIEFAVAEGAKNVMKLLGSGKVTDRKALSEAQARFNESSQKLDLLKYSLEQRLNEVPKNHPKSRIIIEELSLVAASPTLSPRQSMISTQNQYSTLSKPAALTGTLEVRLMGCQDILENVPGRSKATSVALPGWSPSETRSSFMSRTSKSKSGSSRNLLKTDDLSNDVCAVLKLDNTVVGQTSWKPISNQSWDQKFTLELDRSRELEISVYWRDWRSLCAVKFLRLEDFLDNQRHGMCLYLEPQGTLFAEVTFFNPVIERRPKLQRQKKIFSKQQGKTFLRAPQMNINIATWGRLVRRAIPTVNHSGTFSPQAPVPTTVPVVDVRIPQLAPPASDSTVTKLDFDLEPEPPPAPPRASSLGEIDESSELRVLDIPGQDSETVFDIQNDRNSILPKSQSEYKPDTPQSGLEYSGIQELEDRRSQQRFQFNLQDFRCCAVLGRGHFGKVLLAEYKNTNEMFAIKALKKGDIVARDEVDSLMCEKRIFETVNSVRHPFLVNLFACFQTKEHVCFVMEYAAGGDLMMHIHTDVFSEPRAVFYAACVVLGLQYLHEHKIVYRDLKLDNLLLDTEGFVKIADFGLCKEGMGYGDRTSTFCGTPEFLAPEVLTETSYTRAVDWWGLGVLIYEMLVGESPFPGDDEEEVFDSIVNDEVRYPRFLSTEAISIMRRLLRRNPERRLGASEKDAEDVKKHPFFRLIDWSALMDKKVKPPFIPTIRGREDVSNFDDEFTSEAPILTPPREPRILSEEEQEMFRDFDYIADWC
Sequence of MAP3K2 (MEKK2) (Q9Y2U5 whole entry): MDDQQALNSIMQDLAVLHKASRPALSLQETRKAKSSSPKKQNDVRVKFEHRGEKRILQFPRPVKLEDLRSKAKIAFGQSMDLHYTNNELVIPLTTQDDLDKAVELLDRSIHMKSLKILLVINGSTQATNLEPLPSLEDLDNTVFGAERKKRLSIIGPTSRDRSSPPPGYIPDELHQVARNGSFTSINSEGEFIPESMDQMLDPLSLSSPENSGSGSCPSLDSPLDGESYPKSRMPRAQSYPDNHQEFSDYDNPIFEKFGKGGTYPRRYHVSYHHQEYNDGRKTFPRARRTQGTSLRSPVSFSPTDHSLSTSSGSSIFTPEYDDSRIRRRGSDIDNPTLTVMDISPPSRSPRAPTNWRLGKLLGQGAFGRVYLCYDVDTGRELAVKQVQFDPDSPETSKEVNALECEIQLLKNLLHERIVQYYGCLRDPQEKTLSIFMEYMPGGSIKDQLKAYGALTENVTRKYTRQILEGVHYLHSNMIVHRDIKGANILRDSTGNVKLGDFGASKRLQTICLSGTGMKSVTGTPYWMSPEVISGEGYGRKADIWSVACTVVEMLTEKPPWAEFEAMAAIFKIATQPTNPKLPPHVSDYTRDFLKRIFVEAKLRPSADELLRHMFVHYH
Sequence of BMPR1A (ALK3) (P36894 24-532): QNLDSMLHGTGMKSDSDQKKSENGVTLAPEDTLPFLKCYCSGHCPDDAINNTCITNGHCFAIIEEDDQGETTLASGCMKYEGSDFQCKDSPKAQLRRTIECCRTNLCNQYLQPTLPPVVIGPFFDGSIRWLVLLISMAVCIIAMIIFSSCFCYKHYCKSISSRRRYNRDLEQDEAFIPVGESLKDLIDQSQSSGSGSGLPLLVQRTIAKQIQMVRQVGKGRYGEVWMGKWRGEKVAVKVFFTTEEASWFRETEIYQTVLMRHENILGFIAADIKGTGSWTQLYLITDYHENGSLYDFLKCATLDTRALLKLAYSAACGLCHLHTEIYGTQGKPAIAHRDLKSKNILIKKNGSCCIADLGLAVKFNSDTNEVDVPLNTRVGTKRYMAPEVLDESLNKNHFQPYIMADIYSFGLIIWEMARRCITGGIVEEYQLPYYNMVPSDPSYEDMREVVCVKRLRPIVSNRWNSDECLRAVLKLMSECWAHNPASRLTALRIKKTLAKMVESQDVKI
Sequence of FYN A (P06241 whole entry): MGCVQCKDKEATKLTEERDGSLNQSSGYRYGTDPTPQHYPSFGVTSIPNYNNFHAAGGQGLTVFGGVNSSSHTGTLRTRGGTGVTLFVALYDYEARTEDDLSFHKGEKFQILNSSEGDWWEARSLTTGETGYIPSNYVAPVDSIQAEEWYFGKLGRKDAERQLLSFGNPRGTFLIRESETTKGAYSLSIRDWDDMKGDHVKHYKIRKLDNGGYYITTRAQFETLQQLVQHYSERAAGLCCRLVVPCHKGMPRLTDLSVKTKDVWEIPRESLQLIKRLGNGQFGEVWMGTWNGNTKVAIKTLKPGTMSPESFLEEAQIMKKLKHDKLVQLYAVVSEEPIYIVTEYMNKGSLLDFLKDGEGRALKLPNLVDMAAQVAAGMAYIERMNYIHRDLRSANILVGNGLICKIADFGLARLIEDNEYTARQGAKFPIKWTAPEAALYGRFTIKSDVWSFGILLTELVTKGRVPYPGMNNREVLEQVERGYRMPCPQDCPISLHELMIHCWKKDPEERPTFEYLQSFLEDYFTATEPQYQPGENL

## C#CCOc1ccc(Nc2ncc(Cl)c(Nc3ccccc3NC(=O)C=C)n2)c(OC)c1 [Compound 6]
[1]; [16]
  inhibition at 1 µM: -13%
[1]; PRKCE (PKC epsilon), 1 µM, ZLYTE, ATP Km app, listed as WEL028, 1 µM
  Inhibition at 1 µM (%): -15% and -11%
[2]
  Inhibition at 1 µM (%): 2%
[2]; listed as WEL028, 1 µM
  Inhibition at 1 µM (%): 0%
[2]; [16]
  inhibition at 1 µM: 1%
[3]; [16]
  inhibition at 1 µM: 8%
[3]; PKN2 (PRK2), 1 µM, LanthaScreen Binding, listed as WEL028, 1 µM
  Inhibition at 1 µM (%): 9%
[3]; read-out: Inhibition at 1 µM (%), PKN2 (PRK2), 1 µM, LanthaScreen Binding
  inhibition at 1 µM: 6%
[4]; [16]
  inhibition at 1 µM: 3%
[4]; MAP3K2 (MEKK2), 1 µM, LanthaScreen Binding, listed as WEL028, 1 µM
  Inhibition at 1 µM (%): 6% and 1%
[5]; [16]
  inhibition at 1 µM: 3%
[5]; FYN A, 1 µM, LanthaScreen Binding, listed as WEL028, 1 µM
  Inhibition at 1 µM (%): -1% and 7%
[6]; 1 μM WEL028, 1 h preincubation
  Inhibition (%): 16%
[6]; MAPK8 (JNK1), 1 µM, ZLYTE, ATP 100, listed as WEL028, 1 µM
  Inhibition at 1 µM (%): 22%
[6]; read-out: Inhibition at 1 µM (%), MAPK8 (JNK1), 1 µM, ZLYTE, ATP 100
  inhibition at 1 µM: 11%
[7]; [16]
  inhibition at 1 µM: 5%
[7]; MST1R (RON), 1 µM, ZLYTE, ATP Km app, listed as WEL028, 1 µM
  Inhibition at 1 µM (%): 10% and 0%
[8]; [16]
  inhibition at 1 µM: 4%
[8]; AMPK A2/B1/G1, 1 µM, ZLYTE, ATP Km app
  Inhibition at 1 µM (%): -2%
[9]; [16]
  inhibition at 1 µM: -2%
[9]
  Inhibition at 1 µM (%): 2%
[9]; listed as WEL028, 1 µM
  Inhibition at 1 µM (%): -6%
[10]; 100 nM WEL028
  Morphology: macrophage morphology
[10]; 1 µM WEL028
  Morphology: morphology is similar to non-differentiated cells
[11]; 1 h
  inhibition at 1 µM: 5%
[11]; [17]
  inhibition at 1 µM: 5%
[12]
  inhibition at 1 µM: 0%
[13]; 1 h
  inhibition at 1 µM: 15%
[13]; [17]
  inhibition at 1 µM: 15%
[14]; [16]
  inhibition at 1 µM: 15%
[14]; read-out: Inhibition at 1 µM (%), IGF1R, 1 µM, ZLYTE, ATP Km app
  inhibition at 1 µM: 14%
[15]; MAP3K11 (MLK3), LanthaScreen Binding, listed as WEL028, 1 µM
  Inhibition at 1 µM (%): 6%
[15]; read-out: Inhibition at 1 µM (%), MAP3K11 (MLK3), LanthaScreen Binding
  inhibition at 1 µM: 7%
